Where two headings read alike, the source gives them in different places.
Key:
[1] = target: T1, Mycobacterium tuberculosis α-methylacyl-CoA racemase (MCR) (Mycobacterium tuberculosis, UniProt O06543); set-up: made in house; method as in PMID 40447188; details: cited from earlier work
[2] = target: T1, Mycobacterium tuberculosis α-methylacyl-CoA racemase (MCR); assay: MCR inhibition, colorimetric assay, dose-response curves; type: biochemical; set-up: made in house
[3] = target: T1, Mycobacterium tuberculosis α-methylacyl-CoA racemase (MCR); assay: Inhibition mode determination / Ki (kinetic analysis, colorimetric assay); type: biochemical; set-up: made in house
Description: Enzyme and inhibitor solutions were pre-incubated for 10 min before adding these mixtures to the substrate to initiate the assay. Rates were determined using ICEKAT ([50], [51]) and analyzed with SigmaPlot 15.0 using Simple EK and enzyme kinetics macros ([53]). The best-fitting inhibition model was selected based on graphical analysis and statistical ranking of models. The Ki value was determined as the mean ± SEM from three independent repeats.

[4] = target: T1, Mycobacterium tuberculosis α-methylacyl-CoA racemase (MCR); assay: Jump-dilution experiment for reversibility of MCR inhibition; type: biochemical; set-up: made in house; details: inhibitor at 24 × or 0.24 × IC50, 12 min
Description: Inhibition assays were conducted as previously described ([17]) in 50 mM NaH2PO4-NaOH, 100 mM NaCl, 1 mM EDTA (pH 7.4), and 3% (v/v) dimethylsulfoxide. Product formation was monitored at 354 nm. […] Enzyme and inhibitor were preincubated for 10 min before adding substrate to initiate the assay. Rates were determined using ICEKAT ([50], [51]), and dose-response curves ([36], [37]) were fitted using SigmaPlot 15.0 with a 4-parameter logistic model. Data are reported as pIC50 ± SEM (n = 3).

[5] = target: T1, Mycobacterium tuberculosis α-methylacyl-CoA racemase (MCR); details: mean ± SEM, n = 3; cited from earlier work
[6] = Log10 IC50, repeat 1, 4-parameter logistic fit coefficient
[7] = Log10 IC50, repeat 2, 4-parameter logistic fit coefficient
[8] = Log10 IC50, repeat 3, 4-parameter logistic fit coefficient
[9] = pIC50, mean ± SEM, n = 3, MCR 3.12 nM, substrate 96 μM, 10 min preincubation, pH 7.4
[10] = repeat 1, 4-parameter logistic fit coefficient
[11] = repeat 2, 4-parameter logistic fit coefficient
[12] = repeat 3, 4-parameter logistic fit coefficient

T1 sequence (O06543 whole entry): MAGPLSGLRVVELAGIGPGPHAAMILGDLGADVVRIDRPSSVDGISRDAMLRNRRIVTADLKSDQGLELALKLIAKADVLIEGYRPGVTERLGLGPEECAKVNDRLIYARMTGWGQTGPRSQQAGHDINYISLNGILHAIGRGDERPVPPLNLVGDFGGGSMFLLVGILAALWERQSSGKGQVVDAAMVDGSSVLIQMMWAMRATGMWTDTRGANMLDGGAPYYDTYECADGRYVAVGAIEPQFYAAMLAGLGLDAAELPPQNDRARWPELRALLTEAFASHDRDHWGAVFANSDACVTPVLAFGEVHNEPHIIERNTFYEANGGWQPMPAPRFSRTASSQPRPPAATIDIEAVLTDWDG

For `CC(C(=O)SCCNC(=O)CCNC(=O)C(O)C(C)(C)COP(=O)(O)OP(=O)(O)OCC1OC(n2cnc3c(N)ncnc32)C(O)C1OP(=O)(O)O)c1cccc(Oc2ccccc2)c1` (racemic) [Compound 1, (±)-Fenoprofenoyl-CoA], the pIC50 [1] is listed as 5.43 ± 0.07.
Compound `CC(Sc1cccc(OCc2ccccc2)c1)C(=O)SCCNC(=O)CCNC(=O)C(O)C(C)(C)COP(=O)(O)OP(=O)(O)OCC1OC(n2cnc3c(N)ncnc32)C(O)C1OP(=O)(O)O` (racemic) [Compound 2, (±)-2-(3-Benzyloxyphenylthio)propanoyl-CoA] has an IC50 [2, 6] of 1.63 µM, an IC50 [2, 7] of 0.619 µM and an IC50 [2, 8] of 0.487 µM. It also gave an IC50 [2, 9] of 0.794 µM, a Hillslope [2, 10] of -0.7954 and a Hillslope [2, 11] of -0.7479. It also gave a Hillslope [2, 12] of -0.8395.
In the case of `COc1cccc(COc2cccc(SC(C)C(=O)SCCNC(=O)CCNC(=O)C(O)C(C)(C)COP(=O)(O)OP(=O)(O)OCC3OC(n4cnc5c(N)ncnc54)C(O)C3OP(=O)(O)O)c2)c1` (racemic) [Compound 3, (±)-2-(3-(3-Methoxybenzyloxy)phenylthio)propanoyl-CoA], the IC50 [2, 6] is reported as 0.401 µM, the IC50 [2, 7] is reported as 0.425 µM and the IC50 [2, 8] is reported as 0.228 µM. The IC50 [2, 9] was 0.339 µM, the Hillslope [2, 10] was -0.6534 and the Hillslope [2, 11] was -0.5594. The Hillslope [2, 12] was -0.7275.
In the case of `CC(Sc1cccc(OCCc2ccccc2)c1)C(=O)SCCNC(=O)CCNC(=O)C(O)C(C)(C)COP(=O)(O)OP(=O)(O)OCC1OC(n2cnc3c(N)ncnc32)C(O)C1OP(=O)(O)O` (racemic) [Compound 4, (±)-2-(3-(2-Phenylethoxy)phenylthio)propanoyl-CoA], the IC50 [2, 6] is reported as 0.791 µM, the IC50 [2, 7] is reported as 0.891 µM and the IC50 [2, 8] is reported as 0.839 µM. For the same compound, the IC50 [2, 9] was 0.832 µM, the Hillslope [2, 10] was -0.6564 and the Hillslope [2, 11] was -0.8291. For the same compound, the Hillslope [2, 12] was -0.8501.
Work on `COc1cccc(CCOc2cccc(SC(C)C(=O)SCCNC(=O)CCNC(=O)C(O)C(C)(C)COP(=O)(O)OP(=O)(O)OCC3OC(n4cnc5c(N)ncnc54)C(O)C3OP(=O)(O)O)c2)c1` (racemic) [Compound 5, (±)-2-(3-(2-(3-Methoxyphenyl)ethoxy)phenylthio)propanoyl-CoA] yielded an IC50 [2, 6] of 1.47 µM, an IC50 [2, 7] of 1.26 µM and an IC50 [2, 8] of 1.49 µM. For the same compound, the IC50 [2, 9] was 1.41 µM, the Hillslope [2, 10] was -1.0666 and the Hillslope [2, 11] was -1.0398. It also gave a Hillslope [2, 12] of -0.8398.
In the case of `CC(Sc1cccc(OCCc2cccc(C(F)(F)F)c2)c1)C(=O)SCCNC(=O)CCNC(=O)C(O)C(C)(C)COP(=O)(O)OP(=O)(O)OCC1OC(n2cnc3c(N)ncnc32)C(O)C1OP(=O)(O)O` (racemic) [Compound 6, (±)-2-(3-(2-(3-Trifluoromethylphenyl)ethoxy)phenylthio)propanoyl-CoA], the “Potency relative to ibuprofenoyl-CoA, from pIC50” value [2] is reported as “at least 13.5 times”, the IC50 [2, 6] is reported as 0.134 µM and the IC50 [2, 7] is reported as 0.109 µM. For the same compound, the IC50 [2, 8] was 0.316 µM, the IC50 [2, 9] was 0.166 µM and the Hillslope [2, 10] was -0.6535. The Hillslope [2, 11] was -0.6960, the Hillslope [2, 12] was -1.0454 and the Ki ([3]; mean ± SEM, n = 3, competitive model) was 0.238 ± 0.039 µM. For the same compound, the Ki ([3]; repeat 1) was 0.19 µM, the Ki ([3]; repeat 2) was 0.315 µM and the Ki ([3]; repeat 3) was 0.21 µM. For the same compound, the Mode of inhibition ([3]; Lineweaver-Burk plot / kinetic analysis) was “competitive inhibition” and the Reversibility of inhibition [4] was “reversible inhibition”.
Compound `CC(C)COc1cccc(SC(C)C(=O)SCCNC(=O)CCNC(=O)C(O)C(C)(C)COP(=O)(O)OP(=O)(O)OCC2OC(n3cnc4c(N)ncnc43)C(O)C2OP(=O)(O)O)c1` (racemic) [Compound 7, (±)-2-(3-(2-Methylpropoxy)phenylthio)propanoyl-CoA] has an IC50 [2, 6] of 4.03 µM, an IC50 [2, 7] of 3.32 µM and an IC50 [2, 8] of 4.76 µM. For the same compound, the IC50 [2, 9] was 3.98 µM, the Hillslope [2, 10] was -0.7207 and the Hillslope [2, 11] was -0.6683. It also gave a Hillslope [2, 12] of -0.7565.
`CC(Sc1ccc(OCc2ccccc2)cc1)C(=O)SCCNC(=O)CCNC(=O)C(O)C(C)(C)COP(=O)(O)OP(=O)(O)OCC1OC(n2cnc3c(N)ncnc32)C(O)C1OP(=O)(O)O` (racemic) [Compound 8, (±)-2-(4-Benzyloxyphenylthio)propanoyl-CoA] gave an IC50 [2, 6] of 2.62 µM, an IC50 [2, 7] of 2.61 µM and an IC50 [2, 8] of 2.8 µM. For the same compound, the IC50 [2, 9] was 2.69 µM, the Hillslope [2, 10] was -0.8760 and the Hillslope [2, 11] was -0.9668. It also gave a Hillslope [2, 12] of -0.9845.
In the case of `COc1cccc(COc2ccc(SC(C)C(=O)SCCNC(=O)CCNC(=O)C(O)C(C)(C)COP(=O)(O)OP(=O)(O)OCC3OC(n4cnc5c(N)ncnc54)C(O)C3OP(=O)(O)O)cc2)c1` (racemic) [Compound 9, (±)-2-(4-(3-Methoxybenzyloxy)phenylthio)propanoyl-CoA], the IC50 [2, 6] is reported as 2.67 µM, the IC50 [2, 7] is reported as 2.25 µM and the IC50 [2, 8] is reported as 2.84 µM. It also gave an IC50 [2, 9] of 2.57 µM, a Hillslope [2, 10] of -1.2477 and a Hillslope [2, 11] of -0.8652. It also gave a Hillslope [2, 12] of -1.1180.
For `CC(Sc1ccc(OCCc2ccccc2)cc1)C(=O)SCCNC(=O)CCNC(=O)C(O)C(C)(C)COP(=O)(O)OP(=O)(O)OCC1OC(n2cnc3c(N)ncnc32)C(O)C1OP(=O)(O)O` (racemic) [Compound 10, (±)-2-(4-(2-Phenylethoxy)phenylthio)propanoyl-CoA], the IC50 [2, 6] was 2.14 µM, the IC50 [2, 7] was 3.02 µM and the IC50 [2, 8] was 2.49 µM. The IC50 [2, 9] was 2.51 µM, the Hillslope [2, 10] was -0.9669 and the Hillslope [2, 11] was -1.3506. It also gave a Hillslope [2, 12] of -1.1651.
`COc1cccc(CCOc2ccc(SC(C)C(=O)SCCNC(=O)CCNC(=O)C(O)C(C)(C)COP(=O)(O)OP(=O)(O)OCC3OC(n4cnc5c(N)ncnc54)C(O)C3OP(=O)(O)O)cc2)c1` (racemic) [Compound 11, (±)-2-(4-(2-(3-Methoxyphenyl)ethoxy)phenylthio)propanoyl-CoA] gave an IC50 [2, 6] of 0.669 µM, an IC50 [2, 7] of 1.31 µM and an IC50 [2, 8] of 0.598 µM. The IC50 [2, 9] was 0.813 µM, the Hillslope [2, 10] was -0.8553 and the Hillslope [2, 11] was -1.1060. For the same compound, the Hillslope [2, 12] was -0.6966.
Compound `CC(Sc1ccc(OCCc2cccc(C(F)(F)F)c2)cc1)C(=O)SCCNC(=O)CCNC(=O)C(O)C(C)(C)COP(=O)(O)OP(=O)(O)OCC1OC(n2cnc3c(N)ncnc32)C(O)C1OP(=O)(O)O` (racemic) [Compound 12, (±)-2-(4-(2-(3-Trifluoromethylphenethoxy)phenylthio)propanoyl-CoA] has an IC50 [2, 6] of 0.828 µM, an IC50 [2, 7] of 0.706 µM and an IC50 [2, 8] of 1.04 µM. For the same compound, the IC50 [2, 9] was 0.851 µM, the Hillslope [2, 10] was -1.1570 and the Hillslope [2, 11] was -1.0035. For the same compound, the Hillslope [2, 12] was -1.3522.
`CC(C)COc1ccc(SC(C)C(=O)SCCNC(=O)CCNC(=O)C(O)C(C)(C)COP(=O)(O)OP(=O)(O)OCC2OC(n3cnc4c(N)ncnc43)C(O)C2OP(=O)(O)O)cc1` (racemic) [Compound 13, (±)-2-(4-(2-Methylpropoxy)phenylthio)propanoyl-CoA] showed an IC50 [2, 6] of 2.07 µM, an IC50 [2, 7] of 1.93 µM and an IC50 [2, 8] of 1.64 µM. It also gave an IC50 [2, 9] of 1.86 µM, a Hillslope [2, 10] of -0.7177 and a Hillslope [2, 11] of -0.8209. The Hillslope [2, 12] was -0.7335.
`CCCCCOc1ccc(SC(C)C(=O)SCCNC(=O)CCNC(=O)C(O)C(C)(C)COP(=O)(O)OP(=O)(O)OCC2OC(n3cnc4c(N)ncnc43)C(O)C2OP(=O)(O)O)cc1` (racemic) [Compound 14, (±)-2-((4-(pentyloxy)phenyl)thio)propanoyl-CoA] showed an IC50 [2, 6] of 0.913 µM, an IC50 [2, 7] of 0.69 µM and an IC50 [2, 8] of 0.846 µM. The IC50 [2, 9] was 0.813 µM, the Hillslope [2, 10] was -0.6352 and the Hillslope [2, 11] was -0.8783. The Hillslope [2, 12] was -0.7880.
In the case of `CC(C)Cc1ccc(C(C)C(=O)SCCNC(=O)CCNC(=O)C(O)C(C)(C)COP(=O)(O)OP(=O)(O)OCC2OC(n3cnc4c(N)ncnc43)C(O)C2OP(=O)(O)O)cc1` (centres unmarked) [ibuprofenoyl-CoA], the Ki [5] is given as 3.04 ± 0.34 µM and the pIC50 [1] is given as 5.65 ± 0.05.

From article PMC12682127, “Structural basis for inhibition of Mycobacterium tuberculosis α-methylacyl-CoA racemase by 2-arylthiopropanoyl-CoA inhibitor analogs” (The Journal of Biological Chemistry, 2025)
